Reference: a melting point compilation (Tetko et al.; mined from patent text by program, amines drawn as free bases though some values may be those of a salt)

Compound	melting point [°C]
Clc1ccc2c(c1)oc1cc(OCCCBr)ccc12	83 to 85
CCC(CC)OC(=O)c1ccc(C(=O)NS(=O)(=O)c2ccccc2)cn1	182 to 183
CC(=O)Nc1nc(-c2ccc(F)cc2)c(-c2ccc(=O)n(C(C)C)n2)s1	236 to 238
CCSc1ccc(Cl)c(C#N)n1	46 to 48
Cc1c(-c2cccc(O)c2)n(Cc2ccc(OCCN3CCCCC3)cc2)c2ccc(O)cc12	115 to 118
CCOc1ccc(CC2(C)CNCCN2Cc2ccccc2)cc1OCC (configuration not stated)	94 to 96
COC(=O)c1ccc2cc(-c3cccc(OC)c3)oc2c1	150 to 152
N#Cc1ccc(-c2ccc(OS(N)(=O)=O)c(Cl)c2)cc1Cn1cncn1	155 to 158
Cc1cc(N(C)C)cc(C)c1C1OC(C)(C)N=C1c1ccccc1 (configuration not stated)	105
CCCON=C(C(=O)OCC)c1csc(N)n1	142 to 144
CCc1oc2ccccc2c1C(C)(C)C(N)=NO	118 to 120
CNC(=S)C1(c2ccccn2)CCCCS1 (configuration not stated)	153
Cc1cc(Br)cc2ccc(Cl)nc12	114 to 116
COCCNc1ncc(-c2cnc3[nH]c(=O)n(CC4CCCCC4)c3n2)cn1	> 250
C=CCCN(CCC=C)Cc1noc(-c2ncn3c2[C@@H]2CCN2C(=O)c2c(Cl)cccc2-3)n1	115 to 120
O=C(NC12CC3CC(CC(C3)C1)C2)c1cc(O)c(O)cc1Cl	225 to 230
CCN1C(=O)C(C)(C)C(=O)N(C)c2cc(CN(CCn3c(=O)ccc4ccccc43)Cc3ccc(OC)nc3C)ccc21	143 to 144
COc1ccc(I)c(CC(=O)O)c1	134
CN(C)C(=O)N1CCc2ccc(Nc3nc4c(-c5cc(Cl)ccc5OCC(F)F)cccn4n3)cc2CC1	98 to 99
CCn1cc(F)c(N=CN(C)C)nc1=O	157 to 160
CCCCOc1ccc(-c2ccc([C@H]3CC[C@H](CCC)CC3)c(C#N)c2C#N)cc1	115
Clc1cc(N2CCCCCC2)nc(-c2ccccc2)n1	64 to 66
CCOc1ccc2c(c1)N=C(c1cccc(-c3ccc(C)nc3)c1)CC(=O)N2	173
C=CC(O)(c1cccnc1)C(O)c1ccccc1Cl (configuration not stated)	110 to 112

Compound	melting point [°C]
CCOC(=O)C=CCCc1cn(C(c2ccccc2)(c2ccccc2)c2ccccc2)cn1	86 to 88
COC(=O)CSc1nc(SCc2c(Cl)cccc2Cl)ncc1[N+](=O)[O-]	155 to 158
CC(C)Cn1nccc1-c1nn(-c2cccc(C(F)(F)F)c2)ccc1=O	120 to 121
COCC(=O)N[C@@H]1c2cc(C#N)ccc2OC(C)(C)[C@H]1O (relative stereo)	162 to 163
Cc1cc2c(cc1C(=O)c1ccc(C(=O)O)cc1)C1(C)C3(C)CCC(C3)C1(C)O2 (configuration not stated)	238 to 239
CCOC(=O)c1cccc2nc(C)n(Cc3ccc(-c4ccccc4-c4nnn[nH]4)cc3)c12	205 to 206
COC(=S)c1cc(F)c(-c2ccccc2)nc1Nc1ccc(F)cc1F	128
CN1CCC(Oc2ccccc2N)(c2ccccc2)CC1	129 to 130
CNC(=O)CC1CSC2=C(C(=O)OC(C)C)CCN21 (configuration not stated)	79 to 95
Cn1nc(C(F)(F)C(F)(F)F)cc1O	183 to 188
Cc1cc(C(=O)N2Cc3cccn3Cc3ccccc32)ccc1C1=CC(C)(C)CC(C)(C)C1	118 to 120
CCOC(=O)c1ccc(-c2nc3ccc(C)cn3c2CNC(=O)CC(C)C)cc1	230 to 231
CCOC(=O)CCc1ccc2c(c1)c(-c1cc3cccnc3n1S(=O)(=O)c1ccc(C)cc1)cn2C	280 to 282
Cc1cccnc1NC(=O)Nc1cccc2c1C1CC(O)CCN1C2=O (configuration not stated)	204 to 206
O=C1CCCC(=O)C1C(=O)c1ccc(Cl)cc1Cl	138 to 140
NCCN1CCC(Nc2nc3ccccc3n2Cc2ccc(CO)o2)CC1	165
CCOC(=O)COc1ccc(-c2nc3ncccc3[nH]2)c(OC)c1	198
COc1cc2[nH]c(C)c(CCN3CCN(NC(=O)Nc4ccccc4)CC3)c2cc1OC	170 to 173
CC1=C(C#N)S(=O)(=O)c2ccc(C(F)(F)F)cc2N1	329 to 333
Cc1ccc2c(Cl)ccnc2c1[N+](=O)[O-]	140 to 147
COc1cc(CNc2ccc(C)cc2)cc(OC)c1OC	94 to 96
Nc1cc(SCc2ccccc2)ccc1[N+](=O)[O-]	113 to 115
CCOC(=O)CC(=O)c1cc(O)c(O)c([N+](=O)[O-])c1	136 to 137
COc1cc(N)c(Cl)cc1C(=O)NC1CCN(C)C1 (configuration not stated)	185 to 187

Compound	melting point [°C]
CCCOc1c(-c2cc(C=CC(=O)O)ccc2OC)cc(C(C)(C)C)cc1C(C)(C)C	107 to 109
CCOC(=O)Cc1c(C)n(Cc2cccc(OC)c2)c2ccc(OC)cc12	88 to 90
Cc1c(C)c2c(c(C)c1NC(=O)CC(C)(C)C)OC(C)(C)C2Cc1ccccc1 (configuration not stated)	209 to 210
CC(=O)C(=O)NCc1nnc(C)n1-c1cc(Cl)cc(C(=O)c2ccccc2Cl)c1	178 to 180
CCc1nc2cnc3ccccc3c2n1CC(C)C	72 to 73.5
CCCCN(CCCC)c1ccc(C=C2C(=C(C#N)C#N)c3ccccc3C2=C(C#N)C#N)c(OC)c1	195 to 198
CNN1C(=O)CSC1=Cc1cc(C(C)(C)C)c(O)c(C(C)(C)C)c1	151 to 154
OCC1OC(n2cnc3c(NN4CCCCC4)nc(F)nc32)C(O)C1O (configuration not stated)	197 to 199
CCN(C(C)=O)c1cccc(-c2ccc3nnc(C)n3n2)c1	180 to 185
CCOC(=O)c1ncc(Cl)cc1NC(C)=O	98 to 100
O=C(c1ccccc1)c1ccc(N2CCN(c3ccncc3)CC2)cc1	136 to 137
CC(C)(C)C(=O)C(Cl)Oc1ccc(-c2ccccc2)cc1 (configuration not stated)	185 to 190
Cc1oc(-c2ccc(C(F)(F)F)cc2)nc1CCOc1ccc(CN(O)C(N)=O)cc1	156 to 157
COC(C)(CC(=O)Nc1cccc(OCc2ccccc2)c1)OC	83
CCCN1NCc2c(C3C(=O)Nc4ccc(Cl)cc43)ncnc21 (configuration not stated)	293 to 297
O=C1CC=Nc2cc3c(cc21)OCO3	276
CCOC(=O)c1cccc(NC(=O)c2cc(C(C)C)c(C(C)C)o2)c1	144 to 145
COC(=O)C1=CC(C)(C#N)N(c2cccc(Cl)c2Cl)N1 (configuration not stated)	66 to 67
CON(C)C(=O)Nc1ccc(CN2OCC(C)(C)C2=O)c(Cl)c1	93 to 95
O=C(Nc1cccc(Cc2ccccc2)c1)N1CCc2c(cnc3[nH]ncc23)C1	175 to 178
Cc1cc(C)c2c(c1)[C@H]1CN(C)CC[C@@H]1CC2=O (relative stereo)	> 250
CS(=O)(=O)c1ccc(OC2SCC(O)C(O)C2O)cc1 (configuration not stated)	180
ICCCCCCc1ccc(-c2ccccc2)cc1	77 to 77.5

Other lines, results leading:

melting point [°C]	Compound
169 to 172	Cc1ccc(NC(=O)c2ccc(CN(C)C)c(C(F)(F)F)c2)cc1Br
246 to 248	CC(=O)Nc1ccc(-n2c(N)nc3ccccc32)cc1
141 to 142	Cn1nnnc1C(CO)=C(c1ccc(F)cc1)c1ccc(F)cc1
129 to 132	CCCCc1nc(Cl)c(C(=O)O)n1Cc1ccc2oc(-c3ccccc3-c3nnn[nH]3)c(C(C)(C)C)c2c1
215 to 225	COc1cc2c(cc1OC)CN(CCc1ccc(NC(=O)c3cccc4c(=O)c5cccc(OC)c5[nH]c34)cc1)CC2
108	COCc1ccc(N)c(O)c1
160 to 161	CCOC(=O)c1c(CS(=O)c2nc3ccccc3[nH]2)nc2cc(OC)c(OC)cc2c1-c1ccc(OC)c(OC)c1 (configuration not stated)
199 to 200	CC(C)(O)c1cnn2c(-c3ccc(F)c(-c4cccnc4)c3)cnc2n1
218 to 220	Oc1ccccc1-c1ccncc1
95 to 99	CC(=O)c1ccc(Oc2ccc(Cl)c3ccccc23)cc1
141 to 143	COC(=O)C1=C(C=O)NC(C)=C(C(=O)OCC(C)(C)C)C1c1ccccc1C#N (configuration not stated)
68 to 70	O=C1N[C@H](C(=O)NCCCCO[N+](=O)[O-])CS1
160 to 164	COc1ccc(N/C(SC)=C(\C#N)C(N)=O)cc1O
116 to 118	O=C(Nc1ccc(C2(F)CCN(C(=O)OCc3ccccc3)CC2)c(F)c1)OCc1ccccc1
255 to 256	O=C1Nc2cc(Cl)ccc2Nc2ccsc21
> 260	O=C1N=NC(=O)c2c1[nH]c1cccc(Br)c21

melting point [°C]	Compound
54 to 60	CC(C)(C(=O)N1CCc2ccccc2C1)c1ccc(S(=O)(=O)/C=C/C#N)cc1
163 to 164	COC(=O)C(C#N)=CC(C)=CN(C)C
144	Cc1ccc(-c2cn3ccc(Cl)cc3n2)cc1C
184 to 186	COc1ccc(-c2ccc(C(=O)Nc3cc4ncc(CN5CCCC5)cc4cc3F)cc2)cc1
134 to 140	CCCCN1CCOC2c3cccc4[nH]cc(c34)CC21 (configuration not stated)
160	COc1ccc(S(=O)(=O)N(CCn2ccnc2)c2ccc(Cl)cc2Cc2c(F)cccc2F)cc1OC
89	COC1(c2nc(Sc3ccc(/C(C)=N/O)cc3)cs2)CCOCC1
149 to 155	CC1CCC(N(CC2CCC(CN(C(=O)Nc3ccc(N4CCCC4)cc3)C3CCC(C)CC3)CC2)C(=O)Nc2ccc(N3CCCC3)cc2)CC1 (configuration not stated)
115 to 117	N=C(Nc1cccc(NC(=O)C=Cc2ccccc2)c1)c1ccccc1
174 to 175	O=[N+]([O-])c1ccc(Oc2ccc(N3CCN(c4ccncc4)CC3)cc2)nc1
212 to 215	NC(=O)Cc1cccc(C(=O)c2ccc(Cl)cc2)c1N
130	O=C(Nc1ccc2ccc(N3CCCC3)nc2n1)c1ccccc1
190 to 192	CC(C(N)=O)c1ccc2c(c1)C(=O)Cc1cccnc1S2 (configuration not stated)
138	Cc1ccccc1Cn1[nH]c(N)cc1=O
122 to 125	CSC(=Nc1ccc(Cl)c(Cl)c1)NS(C)(=O)=O
